Experimental findings from patent US20120016011A1, “RNA Interference Mediated Inhibition of Connective Tissue Growth Factor (CTGF) Gene Expression Using Short Interfering Nucleic Acid (siNA)” (Merck Sharp & Dohme Corp., priority 2009, published 2012) are described below.

[invAb] = inverted abasic unit; m = 2'-O-methyl; r = 2'-OH (RNA); f = 2'-fluoro

For data set [1], the system named is CTGF mRNA. The experiment in a line: CTGF mRNA knockdown (Taqman RT-PCR) after siNA transfection of human NHLF cells. It is filed as cell-based. Conditions: 10 nM siNA, 24 hrs, average of 3 experiments, vs non-targeting control. Here is the method:
NHLF (Normal human lung fibroblasts; Lonza cat# CC-2512): Cells were cultured at 37° C. in the presence of 5% CO2 and grown in Fibroblast Basal Medium (Lonza cat# CC-3132) supplemented with 2% FBS and growth factors (provided with the kit) and 100 μg/mL of streptomycin and 100 U/mL penicillin.
(§1) Cells were plated in all wells of a tissue-culture treated, 96-well plate at a final count of 5000 cells/well in […], of the appropriate culture media. The cells were cultured for 24 hours after plating at 37° C. in the presence of 5% CO2.
(§2) After 24 hours, complexes containing siNA and RNAiMax were created as follows: A solution of RNAiMax diluted 33-fold in OPTI-MEM was prepared. In parallel, solutions of the siNAs for testing were prepared to a final concentration of 120 nM in OPTI-MEM. After incubation of RNAiMax/OPTI-MEM solution at room temperature for 5 min, an equal volume of the siNA solution and the RNAiMax solution were added together for each of the siNAs.
(§3) This solution was incubated at room temperature for 20 minutes. After incubation, 20 uL of the solution was added to each of the relevant wells. The final concentration of siNA in each well was 10 nM and the final volume of RNAiMax in each well was 0.3 ul.
(§4) The time of incubation with the RNAiMax-siNA complexes was 24 hours and there was no change in media between transfection and harvesting, unless otherwise indicated.
(§5) RNA was extracted from a 96-well plate using the TaqMan® Gene Expression Cells-to-CT™ Kit (Cat# 4399002) with a modified protocol. Briefly, a 60 uL (1 plate) or 110 uL (2 plates) of the Lysis Solution with DNase I was dispensed into each well of the Lysis Buffer Plate (twin.tec full skirt plate). The lysis buffer and stop plates were stored at 4° C. until the cells were washed.
(§6) The plate was spun at 1100 rpm for 5 minutes. The culture medium was aspirated and discarded from the wells of the culture plate. The lysis was performed automatically using a BioMek FX instrument and method. After the Biomek method was completed, the lysis plate was incubated for 2 min. at room temperature. The lysis plate can be stored for 2 hours at 4° C., or at −20° C. or −80° C. for two months.
(§7) Each well of the reverse transcription plate required 10 uL of 2× reverse transcriptase Buffer, 1 uL of 20× reverse transcription enzyme and 2 uL of nuclease-free water. The reverse transcription master mix was prepared by mixing 2× reverse transcription buffer, 20× reverse transcription enzyme mix, and nuclease-free water. 13 uL of the reverse transcription master mix was dispensed into each well of the reverse transcription plate (semi-skirted). A separate reverse transcription plate was prepared for each cell plate. The plate was loaded onto a Biomek NX or Biomek FX Dual -96 and the Biomek method was run. The program is programmed to automatically added 7 uL of lysate from the cell lysis procedure described above into each well of the reverse transcription plate. The plate is sealed and spun on a centrifuge (1000 rpm for 30 seconds) to settle the contents to the bottom of the reverse transcription plate. The plate is placed in a thermocycler at 37° C. for 60 min, 95° C. for 5 min, and 4° C. until the plate is removed from the thermocycler. Upon removal, if not used immediately, the plate was frozen at −20° C.
(§8) A series of probes and primers were used to detect the various mRNA transcripts of the genes of β-Actin (human cell line only), and of CTGF and GAPDH in mouse and human cell lines. All Taqman probes and primers for the experiments here-in described were supplied as pre-validated sets by Applied Biosystems, Inc. (see Table 3).
The assays were performed on an ABI 7900 instrument, according to the manufacturer's instructions. A TaqMan Gene Expression Master Mix (provided in the Cells-to-CT™, Applied Biosystems, Cat # 4399002) was used. The PCR reactions were carried out at 50° C. for 2 min, 95° C. for 20 min followed by 40 cycles at 95° C. for 15 secs and 60° C. for 1 min. […]

For data set [2], the system named is CTGF mRNA. The experiment in a line: CTGF mRNA knockdown (Taqman RT-PCR) after siNA transfection of mouse NIH 3T3 cells. It counts as cell-based. To be noted: mouse NIH3T3 cells, 10 nM siNA, 24 hrs, average of 3 experiments, vs non-targeting control. Here is the method:
NIH 3T3 (mouse; ATCC cat# CRL-1658): Cells were cultured at 37° C. in the presence of 5% CO2 and grown in Dulbecco's modified Eagle's medium (DMEM) with 4 mM L-glutamine adjusted to contain 1.5 g/L sodium bicarbonate and 4.5 g/L glucose and supplemented with fetal bovine serum at a final concentration of 10%, 100 μg/mL of streptomycin, and 100 U/mL penicillin.
as §1, §2, §3, §4, §5, §6, §7, §8
The assays were performed on an ABI 7900 instrument, according to the manufacturer's instructions. A TaqMan Gene Expression Master Mix (provided in the Cells-to-CT™, Applied Biosystems, Cat # 4399002) was used. […]

Turning to “48045-DC: siNA duplex; sense SEQ ID NO: 55 B cuGAcGGcGAGGucAuGAA TTB; antisense SEQ ID NO: 56 UUCAuGAccucGccGucAGUU (sense CUGACGGCGAGGUCAUGAATT; antisense UUCAUGACCUCGCCGUCAGUU; sense: DNA at AGT, 2'-fluoro at CU, [invAb] at 5' end, 3' end, backbone not given here; antisense: sugars from the 5' end rrrmfmmffffmffmffmmmm, backbone not given here)”, the “% KD Human” value with CTGF mRNA [1] is 18 ± 4%. In the data set with CTGF mRNA [2], the “% KD Mouse” value is 19 ± 4%.
In the same order, the values of “48078-DC: siNA duplex; sense SEQ ID NO: 121 B GGuAcuAGcuGAGGuuAuu TTB; antisense SEQ ID NO: 122 AAUAAccucAGcuAGuAccUU (sense GGUACUAGCUGAGGUUAUUTT; antisense AAUAACCUCAGCUAGUACCUU; sense: DNA at AGT, 2'-fluoro at CU, [invAb] at 5' end, 3' end, backbone not given here; antisense: sugars from the 5' end rrrmmffffmmffmmfmffmm, backbone not given here)” are 31 ± 6% and 69 ± 1%.
In the same order, the values of “48070-DC: siNA duplex; sense SEQ ID NO: 105 B AcuGGuuucGAGAcAGuuu TTB; antisense SEQ ID NO: 106 AAAcuGucucGAAAccAGuUU (sense ACUGGUUUCGAGACAGUUUTT; antisense AAACUGUCUCGAAACCAGUUU; sense: DNA at AGT, 2'-fluoro at CU, [invAb] at 5' end, 3' end, backbone not given here; antisense: sugars from the 5' end rrrffmffffmmmmffmmfmm, backbone not given here)” are 9 ± 21% and 56 ± 2%.
For “48080-DC: siNA duplex; sense SEQ ID NO: 125 B AGGAAGAuGuAcGGAGAcA TTB; antisense SEQ ID NO: 126 UGUcuccGuAcAucuuccuUU (sense AGGAAGAUGUACGGAGACATT; antisense UGUCUCCGUACAUCUUCCUUU; sense: DNA at AGT, 2'-fluoro at CU, [invAb] at 5' end, 3' end, backbone not given here; antisense: sugars from the 5' end rrrffffmfmfmfffffffmm, backbone not given here)”, in the data set with CTGF mRNA [1], the “% KD Human” value is listed as 71 ± 2%. Besides, the “% KD Mouse” value in the data set with CTGF mRNA [2] is recorded as 56 ± 2%.
“48068-DC: siNA duplex; sense SEQ ID NO: 101 B uGGuuucGAGAcAGuuuAc TTB; antisense SEQ ID NO: 102 GUAAAcuGucucGAAAccAUU (sense UGGUUUCGAGACAGUUUACTT; antisense GUAAACUGUCUCGAAACCAUU; sense: DNA at AGT, 2'-fluoro at CU, [invAb] at 5' end, 3' end, backbone not given here; antisense: sugars from the 5' end rrrmmffmffffmmmmffmmm, backbone not given here)”: the “% KD Human” value in the data set with CTGF mRNA [1] came out at 12 ± 22%. The “% KD Mouse” value with CTGF mRNA [2] was 65 ± 3%.
Taken in the same sequence, the figures for “48052-DC: siNA duplex; sense SEQ ID NO: 69 B GcGAGGucAuGAAGAAGAA TTB; antisense SEQ ID NO: 70 UUCuucuucAuGAccucGcUU (sense GCGAGGUCAUGAAGAAGAATT; antisense UUCUUCUUCAUGACCUCGCUU; sense: DNA at AGT, 2'-fluoro at CU, [invAb] at 5' end, 3' end, backbone not given here; antisense: sugars from the 5' end rrrffffffmfmmffffmfmm, backbone not given here)” were 27 ± 16% and 41 ± 4%.
In the same order, the values of “48072-DC: siNA duplex; sense SEQ ID NO: 109 B AGuGuGcAcuGccAAAGAu TTB; antisense SEQ ID NO: 110 AUCuuuGGcAGuGcAcAcuUU (sense AGUGUGCACUGCCAAAGAUTT; antisense AUCUUUGGCAGUGCACACUUU; sense: DNA at AGT, 2'-fluoro at CU, [invAb] at 5' end, 3' end, backbone not given here; antisense: sugars from the 5' end rrrfffmmfmmfmfmfmffmm, backbone not given here)” are −8 ± 12% and 14 ± 6%.
On to “48064-DC: siNA duplex; sense SEQ ID NO: 93 B AGuGGAGAuGccAGGAGAA TTB; antisense SEQ ID NO: 94 UUCuccuGGcAucuccAcuUU (sense AGUGGAGAUGCCAGGAGAATT; antisense UUCUCCUGGCAUCUCCACUUU; sense: DNA at AGT, 2'-fluoro at CU, [invAb] at 5' end, 3' end, backbone not given here; antisense: sugars from the 5' end rrrffffmmfmfffffmffmm, backbone not given here)”, for which the “% KD Human” value in the data set on CTGF mRNA [1] was determined as 6 ± 6%. Also, the “% KD Mouse” value in the data set on CTGF mRNA [2] was found to be 58 ± 3%.
Taken in the same sequence, the figures for “48059-DC: siNA duplex; sense SEQ ID NO: 83 B AcGAAcucAuuAGAcuAuA TTB; antisense SEQ ID NO: 84 UAUAGucuAAuGAGuucGuUU (sense ACGAACUCAUUAGACUAUATT; antisense UAUAGUCUAAUGAGUUCGUUU; sense: DNA at AGT, 2'-fluoro at CU, [invAb] at 5' end, 3' end, backbone not given here; antisense: sugars from the 5' end rrrmmfffmmfmmmfffmfmm, backbone not given here)” were 25 ± 9% and 80 ± 4%.
In the same order, the values of “48077-DC: siNA duplex; sense SEQ ID NO: 119 B AGGAAGuAAGGGAcAcGAA TTB; antisense SEQ ID NO: 120 UUCGuGucccuuAcuuccuUU (sense AGGAAGUAAGGGACACGAATT; antisense UUCGUGUCCCUUACUUCCUUU; sense: DNA at AGT, 2'-fluoro at CU, [invAb] at 5' end, 3' end, backbone not given here; antisense: sugars from the 5' end rrrmfmffffffmffffffmm, backbone not given here)” are 19 ± 2% and 71 ± 4%.
Taken in the same sequence, the figures for “48073-DC: siNA duplex; sense SEQ ID NO: 111 B GGAGAcAuGGcGuAAAGcc TTB; antisense SEQ ID NO: 112 GGCuuuAcGccAuGucuccUU (sense GGAGACAUGGCGUAAAGCCTT; antisense GGCUUUACGCCAUGUCUCCUU; sense: DNA at AGT, 2'-fluoro at CU, [invAb] at 5' end, 3' end, backbone not given here; antisense: sugars from the 5' end rrrfffmfmffmfmfffffmm, backbone not given here)” were 7 ± 7% and 25 ± 8%.
